# Laboratory results published in PubChem BioAssay (NCI).
#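 In this assay, cells in 96-well plates receive the compound at five concentrations for 48 hours. Endpoints are linearly interpolated between the surrounding concentrations. Abbreviation: GI50, concentration required for 50% inhibition of growth. TGI: total growth inhibition.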
# Experiments:
# Assay in all cases: NCI tumour cell line growth inhibition, 48 h
# [1] = tested on: SW-620 colon
# [2] = tested on: CAKI-1 renal
# [3] = tested on: LOX IMVI melanoma
# [4] = tested on: ACHN renal
# [5] = tested on: MDA-MB-231 breast
# [6] = tested on: COLO 205 colon
# [7] = tested on: OVCAR-4 ovarian
# [8] = tested on: OVCAR-5 ovarian
# [9] = tested on: RPMI-8226 leukemia
# [10] = tested on: K-562 leukemia
# [11] = tested on: BT-549 breast
# [12] = tested on: UACC-62 melanoma
# [13] = tested on: HS 578T breast
# [14] = tested on: NCI/ADR-RES ovarian
# [15] = tested on: SN12C renal
# [16] = tested on: OVCAR-3 ovarian
# [17] = tested on: HOP-62 NSCLC
# [18] = tested on: MOLT-4 leukemia
# [19] = tested on: HCT-116 colon
# [20] = tested on: SK-OV-3 ovarian
# [21] = tested on: OVCAR-8 ovarian
# [22] = tested on: HL-60(TB) leukemia
# [23] = tested on: UO-31 renal
# [24] = tested on: CCRF-CEM leukemia
# [25] = tested on: A549 NSCLC
# [26] = tested on: U251 CNS
# [27] = tested on: MALME-3M melanoma
# [28] = tested on: SNB-75 CNS
# [29] = tested on: A498 renal
# [30] = tested on: EKVX NSCLC
# [31] = tested on: SF-295 CNS
# [32] = tested on: NCI-H23 lung
# [33] = tested on: MDA-MB-435
# [34] = tested on: HOP-92 NSCLC
# [35] = tested on: RXF 393 renal
# [36] = tested on: PC-3 prostate
# [37] = tested on: UACC-257 melanoma
# [38] = tested on: MCF7 breast
# [39] = tested on: IGROV1 ovarian
# [40] = tested on: HCT-15 colon
# [41] = tested on: MDA-MB-468 breast
# [42] = tested on: NCI-H460 lung
# [43] = tested on: HT29 colon
# [44] = tested on: DU-145 prostate
# [45] = tested on: SK-MEL-5 melanoma
# [46] = tested on: SR leukemia
# [47] = tested on: SF-268 CNS
# [48] = tested on: M14 melanoma
# [49] = tested on: TK-10 renal
# [50] = tested on: HCC-2998 colon
# [51] = tested on: SF-539 CNS
# [52] = tested on: SNB-19 CNS
# [53] = tested on: SK-MEL-2 melanoma
# [54] = tested on: 786-0 renal
# [55] = tested on: NCI-H522 lung
# [56] = tested on: SK-MEL-28 melanoma
# [57] = tested on: NCI-H226 lung
# [58] = tested on: KM12 colon
compound,measurement,setting,value
O=C(Nc1ccc(OCc2ccccc2)cc1)Nc1ccc(Cl)c(C(F)(F)F)c1,GI50,[1],2 µM
same,TGI,[1],11.2 µM
same,GI50,[2],1.61 µM
same,TGI,[2],5.46 µM
same,GI50,[3],2.02 µM
same,TGI,[3],7.36 µM
same,GI50,[4],1.76 µM
same,TGI,[4],4.93 µM
same,GI50,[5],2.58 µM
same,TGI,[5],11.1 µM
same,GI50,[6],1.67 µM
same,TGI,[6],4.25 µM
same,GI50,[7],2.37 µM
same,TGI,[7],27 µM
same,GI50,[8],3.25 µM
same,TGI,[8],58.3 µM
same,GI50,[9],1.69 µM
same,TGI,[9],7.56 µM
same,GI50,[10],2.34 µM
same,TGI,[10],> 64.3 µM
same,GI50,[11],1.62 µM
same,TGI,[11],4.68 µM
same,GI50,[12],1.82 µM
same,TGI,[12],11 µM
same,GI50,[13],1.9 µM
same,TGI,[13],15.7 µM
same,GI50,[14],1.94 µM
same,TGI,[14],7.23 µM
same,GI50,[15],1.75 µM
same,TGI,[15],6.71 µM
same,GI50,[16],1.61 µM
same,TGI,[16],4.96 µM
same,GI50,[17],2.11 µM
same,TGI,[17],41.1 µM
same,GI50,[18],2.5 µM
same,TGI,[18],18.1 µM
same,GI50,[19],1.9 µM
same,TGI,[19],11.5 µM
same,GI50,[20],1.81 µM
same,TGI,[20],4.99 µM
same,GI50,[21],2.1 µM
same,TGI,[21],41.3 µM
same,GI50,[22],1.54 µM
same,TGI,[22],7.77 µM
same,GI50,[23],1.6 µM
same,TGI,[23],5.31 µM
same,GI50,[24],1.69 µM
same,TGI,[24],5.2 µM
same,GI50,[25],1.83 µM
same,TGI,[25],15.2 µM
same,GI50,[26],2 µM
same,TGI,[26],6.59 µM
same,GI50,[27],1.54 µM
same,TGI,[27],4.36 µM
same,GI50,[28],1.79 µM
same,TGI,[28],6.18 µM
same,GI50,[29],1.24 µM
same,TGI,[29],3.9 µM
same,GI50,[30],1.91 µM
same,TGI,[30],7.09 µM
same,GI50,[31],1.76 µM
same,TGI,[31],5.44 µM
same,GI50,[32],1.5 µM
same,TGI,[32],4.39 µM
same,GI50,[33],1.98 µM
same,TGI,[33],27.2 µM
same,GI50,[34],1.34 µM
same,TGI,[34],3.83 µM
same,GI50,[35],4.53 µM
same,TGI,[35],41.2 µM
same,GI50,[36],1.78 µM
same,TGI,[36],7.16 µM
same,GI50,[37],1.4 µM
same,TGI,[37],5.67 µM
same,GI50,[38],1.81 µM
same,TGI,[38],6.77 µM
same,GI50,[39],2.57 µM
same,TGI,[39],> 64.3 µM
same,GI50,[40],2 µM
same,TGI,[40],14 µM
same,GI50,[41],1.42 µM
same,TGI,[41],4.12 µM
same,GI50,[42],1.69 µM
same,TGI,[42],5.61 µM
same,GI50,[43],2.25 µM
same,TGI,[43],10.2 µM
same,GI50,[44],2.28 µM
same,TGI,[44],21.1 µM
same,GI50,[45],2.14 µM
same,TGI,[45],8.25 µM
same,GI50,[46],2.19 µM
same,TGI,[46],13.2 µM
same,GI50,[47],2.28 µM
same,TGI,[47],> 64.3 µM
same,GI50,[48],2.17 µM
same,TGI,[48],> 64.3 µM
same,GI50,[49],2.4 µM
same,TGI,[49],30.1 µM
same,GI50,[50],2.19 µM
same,TGI,[50],29.8 µM
same,GI50,[51],2.34 µM
same,TGI,[51],9.41 µM
same,GI50,[52],2.01 µM
same,TGI,[52],14.1 µM
same,GI50,[53],1.51 µM
same,TGI,[53],3.65 µM
same,GI50,[54],2.09 µM
same,TGI,[54],9.89 µM
same,GI50,[55],1.29 µM
same,TGI,[55],3.52 µM
same,GI50,[56],2.02 µM
same,TGI,[56],> 64.3 µM
same,GI50,[57],2 µM
same,TGI,[57],7.03 µM
same,GI50,[58],2.1 µM
same,TGI,[58],12 µM
